From publication PMC8268887, “Peptide/β-Peptoid Hybrids with Ultrashort PEG-Like Moieties: Effects on Hydrophobicity, Antibacterial Activity and Hemolytic Properties” (International Journal of Molecular Sciences, 2021)
Values after ≈ are worked out from the molar mass of the structure shown. Like-named read-outs stand apart in the source and are kept apart here.

What was measured:
[1] = Hydrophobicity by retention in analytical RP-HPLC (% MeCN at peak elution); type: physicochemical; conditions: for % MeCN at Elution, Aeris Peptide: Phenomenex Aeris Peptide XB-C18 column; for % MeCN at Elution, Aeris Peptide / % MeCN at Elution, Luna Omega / % MeCN at Elution, Supelco Discovery: gradient 0→60% B during 15 min; for % MeCN at Elution, Luna: Phenomenex Luna C18(2) column, RP-HPLC gradient 0→60% B during 15 min, relative hydrophobicity; for % MeCN at Elution, Luna Omega: Phenomenex Luna Omega Polar C18 column; for % MeCN at Elution, Supelco Discovery: Supelco Discovery BIO Wide pore C18 column
How it was run: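 Retention times measured on four C18 columns (Luna C18(2), Luna Omega Polar C18, Aeris Peptide XB-C18, Discovery BIO Wide pore) with MeCN–H2O/0.1% TFA, linear 0–60% B over 15 min, 0.8 mL/min, UV 220 nm. % MeCN at elution = 0.95(0.6Rt/15 min)+0.05(1−0.6Rt/15 min).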

[2] = Estimation of log D values (n-octanol/PBS pH 7.4, LC-MS, log Dmax from LOQ); type: physicochemical; conditions: n-octanol/PBS pH 7.4, 25 °C; indicative threshold from LOQ in octanol phase
Protocol: A phosphate buffered saline (PBS) pH 7.4 was prepared and then saturated with n-octanol. Likewise, an n-octanol solution saturated with pH 7.4 PBS buffer was also prepared. Both solutions were shaken for 24 h, and then left for 24 h in a separating funnel to ensure complete separation of the two phases. This provided an aqueous phase (PBS buffer saturated with n-octanol) and an n-octanol phase (saturated with PBS buffer).
Samples for log D determination were prepared as following: All compounds were dissolved in PBS buffer at a concentration 4 mg/mL, which was used as stock solutions. PBS-saturated n-octanol (1.0 mL), n-octanol-saturated PBS (0.76 mL) and sample stock solution (0.24 mL) were placed into a 4-mL clear glass vial and incubated on Biosan Thermo Shaker TS-100 at 1000 rpm and 25 °C. For optimization of the assay, the incubation time was varied from 5 h to 48 h. […] After incubation samples were centrifugated and left for 30 min to ensure complete separation of the phases. The distribution coefficient was determined by quantification of the compounds both in the aqueous and n-octanol phases. Then, 100 µL of each phase were transferred to 1.5 mL champagne glass vial and evaporated using a GeneVac EZ-2 PLUS evaporation instrument. Before LC-MS analysis samples were diluted with 200 µL MeCN–0.1% aqueous formic acid (1:1, v/v).
LC-MS was performed on Acquity UPLC chromatograph coupled with a MICROMASS QUATTRO micro^TM API tandem mass spectrometer. The mass spectrometer was operated in positive electrospray ionisation mode. Parameter settings were as follows: desolvation gas (N2) flow was 600 L/h; desolvation gas temperature was 400 °C; capillary voltage, 3.30 kV; ion source temperature was 120 °C. Initial data acquisition was carried out in full-scan mode to select the most abundant ions of the individual compounds.
Waters Acquity UPLC column BEH C18 (2.1 × 50 mm, 1.7 µm particle size) was applied for analysis. Acetonitrile and 0.1% aqueous formic acid mixtures were used as mobile phase at a flow rate of 0.4 mL/min with the following gradient: 0.0–2.5 min 5–98% MeCN, 2.5–3.5 min 98% MeCN. Injection volume was 2 µL.
Limit of quantitation (LOQ) was determined using S/N ratio for each compound and used for log Dmax calculations according to the following equation:(2) log Dmax = log (theoretical peak area of n-octanol phase at LOQ concentration/peak area of buffer base) Theoretical peak area at LOQ was calculated according to the calibration curve for each compound.

E. coli ATCC 25922 = type: cell-based, Escherichia coli; conditions: ATCC 25922, 20 h
How it was run: (§1)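 Broth microdilution (modified Hancock method) used ~5 × 10^5 CFU/mL inocula in Mueller-Hinton broth with Mg^2+ and Ca^2+ at 4 mg/L each. Peptidomimetics were diluted in 0.01% acetic acid, 0.2% BSA (final) using low-binding materials. MICs were read after 20 h at 35 °C (±2 °C) with 180 rpm shaking.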

E. coli NMI 3371/16 = type: cell-based, Escherichia coli; conditions: NMI 3371/16, 20 h
How it was run: as §1

E. coli NMI 3898/15 = type: cell-based, Escherichia coli; conditions: NMI 3898/15, 20 h
How it was run: as §1

E. faecalis ATCC 29212 = type: cell-based; conditions: ATCC 29212, 20 h
How it was run: as §1

K. pneumoniae ATCC 13883 = type: cell-based
How it was run: as §1

S. aureus ATCC 29213 = type: cell-based, Staphylococcus aureus; conditions: ATCC 29213, 20 h
How it was run: as §1

Compound | % MeCN at Elution, Aeris Peptide [1] [% MeCN] | % MeCN at Elution, Luna [1] [% MeCN] | % MeCN at Elution, Luna Omega [1] [% MeCN] | % MeCN at Elution, Supelco Discovery [1] [% MeCN] | log Dmax [2] | MIC, EC (E. coli ATCC 25922) [µg/mL] | MIC, E. coli NMI 3371/16 (E. coli NMI 3371/16) [µg/mL] | MIC, E. coli NMI 3898/15 (E. coli NMI 3898/15) [µg/mL] | MIC, EF (E. faecalis ATCC 29212) [µg/mL] | MIC, KP (K. pneumoniae ATCC 13883; ATCC 13883, 20 h) [µg/mL] | MIC, SA (S. aureus ATCC 29213) [µg/mL] | MIC, KP (K. pneumoniae ATCC 13883)
NCCCC[C@H](NC(=O)CCN(Cc1ccc(F)cc1)C(=O)[C@H](CCCCN)NC(=O)CCN(Cc1ccc(F)cc1)C(=O)[C@H](CCCCN)NC(=O)CCOCCOCCOCCOCCOCCOCCNC(=O)CCN(Cc1ccc(F)cc1)C(=O)[C@H](CCCCN)NC(=O)CCN(Cc1ccc(F)cc1)C(=O)[C@H](CCCCN)NC(=O)CCN(Cc1ccc(F)cc1)C(=O)[C@@H](N)CCCCN)C(=O)N(CCC(N)=O)Cc1ccc(F)cc1 [Compound 10, H-[X]3-sPEG6-[X]3-NH2] | 40.3 | 42.3 | 42.8 | 42.5 | < −2.994 | 4 to 8 | 4 to 16 | 8 to 32 | >64 | 64 (≈ 29.1 µM) | >64 | 
NCCCC[C@H](NC(=O)CCN(Cc1ccc(F)cc1)C(=O)[C@H](CCCCN)NC(=O)CCN(Cc1ccc(F)cc1)C(=O)[C@H](CCCCN)NC(=O)CCOCCOCCOCCOCCN)C(=O)N(CCC(=O)NCCOCCOCCOCCOCCC(=O)N[C@@H](CCCCN)C(=O)N(CCC(=O)N[C@@H](CCCCN)C(=O)N(CCC(=O)N[C@@H](CCCCN)C(=O)N(CCC(=O)NCCOCCOCCOCCOCCC(N)=O)Cc1ccc(F)cc1)Cc1ccc(F)cc1)Cc1ccc(F)cc1)Cc1ccc(F)cc1 [Compound 14, H-sPEG4-[X]3-sPEG4-[X]3-sPEG4-NH2] | 40.4 | 42.4 | 43.5 | 42.5 | < −2.883 | 16 (≈ 6.15 µM) | 16 (≈ 6.15 µM) | 32 (≈ 12.3 µM) | >64 | >64 | >64 | 
NCCCC[C@H](NC(=O)CCN(Cc1ccc(F)cc1)C(=O)[C@H](CCCCN)NC(=O)CCN(Cc1ccc(F)cc1)C(=O)[C@H](CCCCN)NC(=O)CCOCCOCCOCCOCCNC(=O)CCN(Cc1ccc(F)cc1)C(=O)[C@H](CCCCN)NC(=O)CCN(Cc1ccc(F)cc1)C(=O)[C@H](CCCCN)NC(=O)CCN(Cc1ccc(F)cc1)C(=O)[C@@H](N)CCCCN)C(=O)N(CCC(N)=O)Cc1ccc(F)cc1 [Compound 9, H-[X]3-sPEG4-[X]3-NH2] | 39.8 | 41.8 | 42.3 | 42.0 | < −3.627 | 4 (≈ 1.9 µM) | 4 to 8 | 16 (≈ 7.59 µM) | >64 | >64 | >64 | 
NCCCC[C@H](NC(=O)CCN(Cc1ccc(F)cc1)C(=O)[C@H](CCCCN)NC(=O)CCN(Cc1ccc(F)cc1)C(=O)[C@H](CCCCN)NC(=O)COCCN)C(=O)N(CCC(=O)NCCOCC(=O)N[C@@H](CCCCN)C(=O)N(CCC(=O)N[C@@H](CCCCN)C(=O)N(CCC(=O)N[C@@H](CCCCN)C(=O)N(CCC(=O)NCCOCC(N)=O)Cc1ccc(F)cc1)Cc1ccc(F)cc1)Cc1ccc(F)cc1)Cc1ccc(F)cc1 [Compound 11, H-sPEG1-[X]3-sPEG1-[X]3-sPEG1-NH2] | 38.7 | 40.8 | 41.4 | 40.8 | < −2.876 | 8 (≈ 3.7 µM) | 8 (≈ 3.7 µM) | 16 (≈ 7.39 µM) | >64 | >64 | >64 | 
NCCCC[C@H](NC(=O)CCN(Cc1ccc(F)cc1)C(=O)[C@H](CCCCN)NC(=O)CCN(Cc1ccc(F)cc1)C(=O)[C@H](CCCCN)NC(=O)COCCOCCOCCN)C(=O)N(CCC(=O)NCCOCCOCCOCC(=O)N[C@@H](CCCCN)C(=O)N(CCC(=O)N[C@@H](CCCCN)C(=O)N(CCC(=O)N[C@@H](CCCCN)C(=O)N(CCC(=O)NCCOCCOCCOCC(N)=O)Cc1ccc(F)cc1)Cc1ccc(F)cc1)Cc1ccc(F)cc1)Cc1ccc(F)cc1 [Compound 13, H-sPEG3-[X]3-sPEG3-[X]3-sPEG3-NH2] | 39.9 | 41.9 | 42.8 | 42.1 | < −3.911 | 8 to 16 | 8 (≈ 3.29 µM) | 16 (≈ 6.59 µM) | >64 | >64 | >64 | 

Further lines, results first:

% MeCN at Elution, Aeris Peptide [1] [% MeCN] | % MeCN at Elution, Luna [1] [% MeCN] | % MeCN at Elution, Luna Omega [1] [% MeCN] | % MeCN at Elution, Supelco Discovery [1] [% MeCN] | log Dmax [2] | MIC, EC (E. coli ATCC 25922) [µg/mL] | MIC, E. coli NMI 3371/16 (E. coli NMI 3371/16) [µg/mL] | MIC, E. coli NMI 3898/15 (E. coli NMI 3898/15) [µg/mL] | MIC, EF (E. faecalis ATCC 29212) [µg/mL] | MIC, KP (K. pneumoniae ATCC 13883; ATCC 13883, 20 h) [µg/mL] | MIC, SA (S. aureus ATCC 29213) [µg/mL] | MIC, KP (K. pneumoniae ATCC 13883) | Compound
39.0 | 41.1 | 41.4 | 41.2 | < −3.180 | 4 (≈ 1.94 µM) | 4 (≈ 1.94 µM) | 8 (≈ 3.88 µM) | >64 |  | >64 | 64–>64 | NCCCC[C@H](NC(=O)CCN(Cc1ccc(F)cc1)C(=O)[C@H](CCCCN)NC(=O)COCCNC(=O)CCN(Cc1ccc(F)cc1)C(=O)[C@H](CCCCN)NC(=O)CCN(Cc1ccc(F)cc1)C(=O)[C@H](CCCCN)NC(=O)COCCNC(=O)CCN(Cc1ccc(F)cc1)C(=O)[C@H](CCCCN)NC(=O)CCN(Cc1ccc(F)cc1)C(=O)[C@@H](N)CCCCN)C(=O)N(CCC(N)=O)Cc1ccc(F)cc1 [Compound 15, H-[X]2-sPEG1-[X]2-sPEG1-[X]2-NH2]
39.4 | 41.6 | 41.9 | 41.7 | < −2.662 | 4 to 8 | 8 (≈ 4.3 µM) | 8 (≈ 4.3 µM) | >64 |  | 16 (≈ 8.6 µM) | 64–>64 | NCCCC[C@H](NC(=O)CCN(Cc1ccc(F)cc1)C(=O)[C@H](CCCCN)NC(=O)CCN(Cc1ccc(F)cc1)C(=O)[C@H](CCCCN)NC(=O)CCN(Cc1ccc(F)cc1)C(=O)[C@H](CCCCN)NC(=O)CCN(Cc1ccc(F)cc1)C(=O)[C@H](CCCCN)NC(=O)CCN(Cc1ccc(F)cc1)C(=O)[C@@H](N)CCCCN)C(=O)N(CCC(N)=O)Cc1ccc(F)cc1 [Compound 1, H-[Lys-βNPhe(4-F)]6-NH2]
39.4 | 41.4 | 41.8 | 41.6 | < −3.650 | 4 (≈ 1.99 µM) | 4 (≈ 1.99 µM) | 8 (≈ 3.99 µM) |  | >64 |  |  | NCCCC[C@H](NC(=O)CCN(Cc1ccc(F)cc1)C(=O)[C@H](CCCCN)NC(=O)CCN(Cc1ccc(F)cc1)C(=O)[C@H](CCCCN)NC(=O)COCCOCCNC(=O)CCN(Cc1ccc(F)cc1)C(=O)[C@H](CCCCN)NC(=O)CCN(Cc1ccc(F)cc1)C(=O)[C@H](CCCCN)NC(=O)CCN(Cc1ccc(F)cc1)C(=O)[C@@H](N)CCCCN)C(=O)N(CCC(N)=O)Cc1ccc(F)cc1 [Compound 7, H-[X]3-sPEG2-[X]3-NH2]
